Data set [1] concerns Rat Liver. To be noted: rat chronic study, liver, neoplastic lesion; coded 6 / 0, code not explained here; ref ToxRefDB; cited from earlier work.
The target in data set [2] is T1, PPARA (peroxisome proliferator-activated receptor alpha) (Homo sapiens, UniProt Q07869).
T1 construct: expressed in transfected cells; host or cells: HepG2
T1 sequence (Q07869 1-468): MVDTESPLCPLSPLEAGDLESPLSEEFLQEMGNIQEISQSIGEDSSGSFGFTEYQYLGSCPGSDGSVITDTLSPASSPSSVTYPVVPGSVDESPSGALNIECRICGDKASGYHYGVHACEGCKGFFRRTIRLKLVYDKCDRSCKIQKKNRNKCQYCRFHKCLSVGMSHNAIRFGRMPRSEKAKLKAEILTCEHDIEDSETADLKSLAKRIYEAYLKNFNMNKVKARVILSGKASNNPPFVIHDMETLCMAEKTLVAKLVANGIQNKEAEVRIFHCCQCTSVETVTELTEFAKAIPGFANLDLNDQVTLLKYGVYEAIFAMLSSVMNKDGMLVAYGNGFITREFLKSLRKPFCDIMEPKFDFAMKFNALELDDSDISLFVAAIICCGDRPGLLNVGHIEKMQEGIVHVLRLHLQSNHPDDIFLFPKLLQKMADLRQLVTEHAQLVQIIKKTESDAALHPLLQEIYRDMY
As to the kind of experiment: ATG_PPARa_TRANS: Factorial reporter gene assay (HepG2). It counts as cell-based. The arrangement: scale not given here. To be noted: scale not given, looks like -log10 of molar active concentration, 0 = no activity. The procedure: A multiple reporter transcription unit (MRTU) library consisting of 48 transcription factor binding sites was transfected into the HepG2 human liver hepatoma cell line. In addition to the cis-acting reporter genes (CIS), a modification of the approach was used to generate a trans-system (TRANS) with a mammalian one-hybrid assay consisting of an additional 25 MRTU library reporting the activity of nuclear receptor super-family members. […] These assays were performed by Attagene Inc. (Morrisville NC) under contract to EPA.
In addition to the cis-acting reporter genes (CIS), a modification of the approach was used to generate a trans-system (TRANS) with a mammalian one-hybrid assay consisting of an additional 25 MRTU library reporting the activity of nuclear receptor super-family members. […] Chemicals were then tested in the CIS and TRANS assays at seven concentrations starting at the MTC and followed by three-fold serial dilutions. These assays were performed by Attagene Inc. (Morrisville NC) under contract to EPA. Detailed description of the methods, data and analysis methods for this dataset will be presented in a separate publication.
Background: Reporter assays use an easily measured gene product as a stand-in for the process of interest.

The next data set deals with T2, PXR (NR1I2) (Homo sapiens, UniProt O75469).
T2 sequence (O75469 1-434): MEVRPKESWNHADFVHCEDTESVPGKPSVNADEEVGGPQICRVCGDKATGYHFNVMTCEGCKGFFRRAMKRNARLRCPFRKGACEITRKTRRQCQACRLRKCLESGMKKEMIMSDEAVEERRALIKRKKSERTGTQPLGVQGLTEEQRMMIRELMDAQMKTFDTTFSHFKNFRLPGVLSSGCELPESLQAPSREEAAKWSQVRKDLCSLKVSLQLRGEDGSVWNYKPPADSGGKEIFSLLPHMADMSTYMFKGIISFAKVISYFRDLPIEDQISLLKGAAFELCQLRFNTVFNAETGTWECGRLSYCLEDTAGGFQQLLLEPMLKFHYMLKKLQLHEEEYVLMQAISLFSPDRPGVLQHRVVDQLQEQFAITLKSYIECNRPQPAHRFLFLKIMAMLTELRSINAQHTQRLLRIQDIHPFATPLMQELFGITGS
In words: ATG_PXRE_CIS: Factorial reporter gene assay (HepG2). The arrangement: endogenous in cells; host or cells: HepG2. It is filed as cell-based. To be noted: HepG2; scale not given, looks like -log10 of molar active concentration; 0 = no activity. In a few lines: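 CIS (PXRE): HepG2 transfected with 48 TF-binding-site MRTU library. TRANS (ERRg, FXR, PPARg): one-hybrid format, extra 25 nuclear-receptor MRTUs. 7 concs, top = MTC, 3-fold serial dilution.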

The target in another data set is T3, PPARa (PPARA) (Homo sapiens, UniProt Q07869).
T3 sequence (Q07869 1-468): T1 sequence (Q07869 1-468)
As to the kind of experiment: NVS_NR_hPPARa: Human PPARa Fluormone Pan-PPAR green (cell-free HTS). It counts as binding. Conditions: scale not given, looks like -log10 of molar active concentration, 0 = no activity. An excerpt: These are a collection of biochemical assays measuring binding constants and enzyme inhibition values. Chemicals were initially screened at a single concentration in duplicate wells at a concentration of 10 [drawing 63] M for cytochrome P-450 assays and 25 [drawing 64] M for all others. […] These assays were run by Caliper Life Sciences (Hanover, MD) under contract to EPA. Short assay descriptions are available at: http://www.caliperls.com/products/contract-research/in-vitro/.
Cell-free HTS Assays: A collection of biochemical assays measuring binding constants and enzyme inhibition values. […] These assays were run by Caliper Life Sciences (Hanover, MD) under contract to EPA. Short assay descriptions are available at http://www.caliperls.com/products/contract-research/in-vitro/. Values for all endpoints were imported into GeneData Screener (Basel, Switzerland) and normalised to solvent controls from the same plate as the tested compounds and expressed as percent of neutral control. Concentration-response curves were fit in GeneData Screener (Basel, Switzerland) Condeseo module using the Hill equation and AC50 values were determined. […] Detailed description of the methods, data and analysis methods for this dataset are described in a separate publication.

The test system of data set [3] is Rat Liver. To be noted: rat chronic study, liver, any lesion; coded 6 / 0, code not explained here; ref ToxRefDB; cited from earlier work.
The target of the next data set is T4, ERa (ESR1) (Homo sapiens, UniProt P03372).
T4 construct: expressed in transfected cells; host or cells: HEK293
T4 sequence (P03372 whole entry): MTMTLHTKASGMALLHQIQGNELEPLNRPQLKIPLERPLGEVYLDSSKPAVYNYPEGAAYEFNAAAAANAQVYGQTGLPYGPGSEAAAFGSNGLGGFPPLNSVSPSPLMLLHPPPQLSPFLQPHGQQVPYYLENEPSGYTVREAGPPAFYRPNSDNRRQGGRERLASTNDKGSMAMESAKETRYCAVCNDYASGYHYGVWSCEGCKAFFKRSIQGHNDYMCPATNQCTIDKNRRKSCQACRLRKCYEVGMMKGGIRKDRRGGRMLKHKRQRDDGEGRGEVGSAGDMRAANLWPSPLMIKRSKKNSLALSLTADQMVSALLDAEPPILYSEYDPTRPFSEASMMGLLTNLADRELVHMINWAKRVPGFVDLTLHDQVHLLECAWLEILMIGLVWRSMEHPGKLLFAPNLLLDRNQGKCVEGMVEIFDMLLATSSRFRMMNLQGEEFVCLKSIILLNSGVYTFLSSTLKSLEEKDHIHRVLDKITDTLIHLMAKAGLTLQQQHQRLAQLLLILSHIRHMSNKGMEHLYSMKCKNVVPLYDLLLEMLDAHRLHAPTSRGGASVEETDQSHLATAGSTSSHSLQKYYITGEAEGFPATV
In words: NCGC_ERalpha_Antagonist: GAL4 BLAM Reporter gene assay: ERa. It is filed as cell-based. Conditions: antagonist mode; scale not given, looks like -log10 of molar active concentration; 0 = no activity.

Each structure is given as a SMILES string.

`CC(C)N1C(=O)N(c2ccccc2)CS/C1=N\C(C)(C)C` [r45]: in the data set on Rat Liver [1], the CHR_Rat_Liver_3_NeoplasticLesion is 0. This compound also had an ATG_PPARa_TRANS in data set [2] of 0. In addition, the ATG_PXRE_CIS at PXR (NR1I2) was found to be 5.456. Further, at PPARa (PPARA), the NVS_NR_hPPARa is given as 0. Besides, the CHR_Rat_Liver_1_AnyLesion in the data set with Rat Liver [3] was 6. The compound also came in with an NCGC_ERalpha_Antagonist at ERa (ESR1) of 0.
On to `CCCCOCN(C(=O)CCl)c1c(CC)cccc1CC` [r46], for which, in the data set with Rat Liver [1], the CHR_Rat_Liver_3_NeoplasticLesion is recorded as 0. Further, in data set [2], the ATG_PPARa_TRANS is recorded as 0. The compound also came in with an ATG_PXRE_CIS on PXR (NR1I2) of 5.721. Besides, the NVS_NR_hPPARa at PPARa (PPARA) was 0. In addition, the CHR_Rat_Liver_1_AnyLesion in the data set on Rat Liver [3] is reported as 6. This compound showed an NCGC_ERalpha_Antagonist at ERa (ESR1) of 0.
Consider `C=CCOC(=O)C(C)(C)OC(=O)c1cc(-n2c(=O)cc(C(F)(F)F)n(C)c2=O)ccc1Cl` [r47], for which, in the data set on Rat Liver [1], the CHR_Rat_Liver_3_NeoplasticLesion is 0. Moreover, the ATG_PPARa_TRANS in data set [2] is recorded as 0. At PXR (NR1I2), this compound returned an ATG_PXRE_CIS of 0. For the same compound, at PPARa (PPARA), the NVS_NR_hPPARa is 0. For the same compound, the CHR_Rat_Liver_1_AnyLesion in the data set on Rat Liver [3] is 6. Also, the NCGC_ERalpha_Antagonist at ERa (ESR1) turned out to be 0.
`CCSC(=O)N(CC(C)C)CC(C)C` [r49]: in the data set with Rat Liver [1], the CHR_Rat_Liver_3_NeoplasticLesion is 0. Moreover, the ATG_PPARa_TRANS in data set [2] was determined as 0. Moreover, at PXR (NR1I2), the ATG_PXRE_CIS was 0. The same compound displayed an NVS_NR_hPPARa on PPARa (PPARA) of 0. The CHR_Rat_Liver_1_AnyLesion with Rat Liver [3] is 6. This compound had an NCGC_ERalpha_Antagonist at ERa (ESR1) of 0.
For `CNC(=O)Oc1cccc2ccccc12` [r52], the CHR_Rat_Liver_3_NeoplasticLesion in the data set with Rat Liver [1] is on record as 6. The same compound registered an ATG_PPARa_TRANS in data set [2] of 0. The ATG_PXRE_CIS at PXR (NR1I2) is 4.42. Also, the NVS_NR_hPPARa at PPARa (PPARA) was found to be 0. Also, the CHR_Rat_Liver_1_AnyLesion in the data set on Rat Liver [3] is given as 6. Also, on ERa (ESR1), the NCGC_ERalpha_Antagonist was 0.
As to `CC1=C(C(=O)Nc2ccccc2)SCCO1` [r53], the CHR_Rat_Liver_3_NeoplasticLesion with Rat Liver [1] is listed as 0. The compound also came in with an ATG_PPARa_TRANS in data set [2] of 0. This compound also came in with an ATG_PXRE_CIS at PXR (NR1I2) of 4.328. On PPARa (PPARA), this compound yielded an NVS_NR_hPPARa of 0. For the same compound, the CHR_Rat_Liver_1_AnyLesion with Rat Liver [3] is reported as 0. At ERa (ESR1), this compound came in with an NCGC_ERalpha_Antagonist of 0.
Take `CCOC(=O)C(Cl)Cc1cc(-n2nc(C)n(C(F)F)c2=O)c(F)cc1Cl` (stereo not drawn) [r54]: in the data set with Rat Liver [1], the CHR_Rat_Liver_3_NeoplasticLesion is on record as 0. In data set [2], the ATG_PPARa_TRANS is reported as 0. The ATG_PXRE_CIS at PXR (NR1I2) is 4.328. The same compound had an NVS_NR_hPPARa at PPARa (PPARA) of 0. Also, in the data set on Rat Liver [3], the CHR_Rat_Liver_1_AnyLesion was 6. The same compound showed an NCGC_ERalpha_Antagonist at ERa (ESR1) of 0.
For `Nc1cnn(-c2ccccc2)c(=O)c1Cl` [r56], the CHR_Rat_Liver_3_NeoplasticLesion with Rat Liver [1] was 0. Besides, the ATG_PPARa_TRANS in data set [2] was determined as 0. This compound displayed an ATG_PXRE_CIS at PXR (NR1I2) of 0. This compound showed an NVS_NR_hPPARa at PPARa (PPARA) of 0. In addition, the CHR_Rat_Liver_1_AnyLesion with Rat Liver [3] is given as 0. The NCGC_ERalpha_Antagonist on ERa (ESR1) was found to be 0.
In the case of `CC(C)OC(=O)Nc1cccc(Cl)c1` [r59], in the data set on Rat Liver [1], the CHR_Rat_Liver_3_NeoplasticLesion is recorded as 0. Also, in data set [2], the ATG_PPARa_TRANS is listed as 0. This compound also had an ATG_PXRE_CIS at PXR (NR1I2) of 4.658. On PPARa (PPARA), this compound had an NVS_NR_hPPARa of 0. Besides, the CHR_Rat_Liver_1_AnyLesion in the data set on Rat Liver [3] is 6. Moreover, at ERa (ESR1), the NCGC_ERalpha_Antagonist is 0.
In the case of `COc1nc(C)nc(NC(=O)NS(=O)(=O)c2ccccc2Cl)n1` [r62], the CHR_Rat_Liver_3_NeoplasticLesion with Rat Liver [1] was 0. The same compound came in with an ATG_PPARa_TRANS in data set [2] of 0. This compound also showed an ATG_PXRE_CIS at PXR (NR1I2) of 4.495. At PPARa (PPARA), the NVS_NR_hPPARa is 0. Further, the CHR_Rat_Liver_1_AnyLesion in the data set on Rat Liver [3] is 6. For the same compound, the NCGC_ERalpha_Antagonist at ERa (ESR1) turned out to be 0.
For `COc1nc(C)nc(NC(=O)NS(=O)(=O)c2ccccc2Cl)n1` [r63], in the data set with Rat Liver [1], the CHR_Rat_Liver_3_NeoplasticLesion is 0. The compound also yielded an ATG_PPARa_TRANS in data set [2] of 0. The ATG_PXRE_CIS at PXR (NR1I2) worked out at 0. The NVS_NR_hPPARa on PPARa (PPARA) is 0. In addition, the CHR_Rat_Liver_1_AnyLesion in the data set with Rat Liver [3] is recorded as 6. The NCGC_ERalpha_Antagonist at ERa (ESR1) is on record as 0.

The values are drawn from PMC3038857, “Using Nuclear Receptor Activity to Stratify Hepatocarcinogens” (PLoS ONE, 2011).
